Results: patent US20210236532A1, “THERAPEUTIC AGENT FOR FRONTOTEMPORAL LOBAR DEGENERATION, METHOD FOR SCREENING THERAPEUTIC AGENT FOR FRONTOTEMPORAL LOBAR DEGENERATION AND METHOD FOR TREATING FRONTOTEMPORAL LOBAR DEGENERATION” (National University Corporation Tokyo Medical and Dental …, priority 2018, published 2021)

Columns and labels:
Format in all cases: in vivo
[1] = test system: PGRN-KI mice; assay: Morris water maze test
Protocol: (§1) The following two types of behavioral experiments (fear conditioning experiment and Morris water maze test) were performed, and an impaired cognitive response was found in the PGRN-KI mice of 12 weeks or older. Such an impaired response is a symptom similarly seen in frontotemporal lobar degeneration. It is to be noted that all behavioral tests are carried out according to the method indicated by Ito H. et al. (Mol Psychiatry. 2015 April; 20 (4): 459-471).
A Morris water maze test was performed with the PGRN-KI mice and control mice (C57BL/6J mice without the knock-in). Specifically, the mice received a 60-second trial four times per day for 5 days, and the time period taken for each mouse to reach the platform was measured. […] This means that the cognitive response of the PGRN-KI mice was impaired as compared with the control mice.
(§2) The knockdown of each gene was performed according to the following procedures: Lentiviral particles (2×10^5 titer units/100 μl) containing scrambled shRNA (sc-108080, manufactured by Santa Cruz Biotechnology), Tau-shRNA (sc-430402-V, manufactured by Santa Cruz Biotechnology), B-Raf shRNA (sc-63294-V, manufactured by Santa Cruz Biotechnology), or Tyro3-siRNA (iV037848, manufactured by ABM) were diluted to 1:4 with ACSF buffer (NaCl 125 mM; KCl 2.5 mM; NaH2PO4 1.25 mM; MgCl2 1 mM; CaCl2) 1 mM; NaHCO326 mM; and glucose 25 mM). […]

[2] = test system: PGRN-KI mice; assay: Fear conditioning experiment (freezing reaction)
Protocol: as §1
A fear conditioning experiment was performed with the PGRN-KI mice and control mice (C57BL/6J mice without the knock-in). Specifically, the mice received electrical stimulation (0.4 mA, 2 s) on their paws along with sound stimulation (65 dB white noise, 30 s). Twenty-four hours later, the frequency of the freezing reaction in the mice was measured when the mice were subjected to the sound stimulation without the electrical stimulation in the same chamber. […] This means that the cognitive response of the PGRN-KI mice was impaired as compared with the control mice. […]

[3] = test system: PGRN-KI mice; assay: Morphological analysis of spines (two-photon excitation microscope, IMARIS)
Protocol: as §2, with “mM). Further, a plasmid vector (10 μg) containing scrambled shRNA (TG501653, manufactured by OriGene), PKCα-shRNA (TG501653, manufactured by OriGene), or Gas6-shRNA (sc-35451-SH, manufactured by Santa Cruz Biotechnology) was dissolved in 100 μl of in vivo-jetPEI (201-10G, manufactured by Polyplus-transfection).” for “mM).”
Images of dendrites from the mice (at 12 weeks of age) knocked down for each gene were acquired using a two-photon excitation microscope. In addition, the number of spines was measured using “IMARIS software” (IMARIS 7.2.2, manufactured by Bitplane GmbH). […]
Images of dendrites from the mice (at 12 weeks of age) in each administered group were acquired using a two-photon excitation microscope. In addition, the number of spines was measured using “IMARIS software” (IMARIS 7.2.2, manufactured by Bitplane GmbH). […]

[4] = PGRN-KI mice, treated vs untreated/unknocked-down PGRN-KI mice
[5] = control mice (C57BL/6J without the knock-in), with or without agent

## Cn1c2ccccc2c2c3c(c4c5ccccc5n(CCC#N)c4c21)CNC3=O [Go6976]
[1]; [4]
  cognitive response in the Morris water maze test: significantly improved
[1]; [5]
  cognitive response in the Morris water maze test: no change
[2]; [4]
  cognitive response in the fear conditioning experiment: significantly improved
[2]; [5]
  cognitive response in the fear conditioning experiment: no change
[3]; PGRN-KI mice at 12 weeks of age, treated vs untreated/unknocked-down PGRN-KI mice
  number of spines: markedly higher number of spines
[3]; control mice (C57BL/6J without the knock-in) at 12 weeks of age, with or without agent
  number of spines: no change
